Measurements from patent US20160219829A1, “ANTI-ODOR MATERIAL FOR ANIMAL LITTERS USING PHOSPHOROTRIAMIDES IN POWDER FORM” (priority 2013, published 2016).

Target: T1, urease (Canavalia ensiformis, UniProt P07374)
T1 construct: purchased Sigma
Type: biochemical
Method: To simulate soiled anti-odor material, urea/urease solution was prepared and added to the anti-odor material.
In the same beaker, weight 50 g of demineralised water.
In a small plastic cup, weight 0.012 g of urease. Then empty the plastic cup in the beaker containing the water and rinse it with the water/urea solution.
Fill a standard volume with anti-odor material (litter+n-BTPT powder) and equalize the surface. Empty the standard volume in a plastic bowl used for analysis.
Empty slowly the urea/urease solution on the anti-odor material while making sure that no solution comes in contact with sides of the plastic bowl.
Put a cover on the plastic bowl (the cover having a hole).
Insert the tube of a Gastec pump (GV-100S) in the hole of the cover.
Note the start time of the test and take a reading of the tube every 30 minutes for the first 7 hours.
Take a reading at 24 and 48 hour.
Dosimetry tests were performed according to the methodology above. The results were taken after 48 h of testing.
Dosimetry tests were then realised to evaluate the performance of the litter samples by measuring the ammonia release (in ppm). More particularly, performances of the odor-retardant material with n-BTPT in a powder form, in melted phase or coating a particulate support could be evaluated.

T1 sequence (P07374 whole entry, looked up): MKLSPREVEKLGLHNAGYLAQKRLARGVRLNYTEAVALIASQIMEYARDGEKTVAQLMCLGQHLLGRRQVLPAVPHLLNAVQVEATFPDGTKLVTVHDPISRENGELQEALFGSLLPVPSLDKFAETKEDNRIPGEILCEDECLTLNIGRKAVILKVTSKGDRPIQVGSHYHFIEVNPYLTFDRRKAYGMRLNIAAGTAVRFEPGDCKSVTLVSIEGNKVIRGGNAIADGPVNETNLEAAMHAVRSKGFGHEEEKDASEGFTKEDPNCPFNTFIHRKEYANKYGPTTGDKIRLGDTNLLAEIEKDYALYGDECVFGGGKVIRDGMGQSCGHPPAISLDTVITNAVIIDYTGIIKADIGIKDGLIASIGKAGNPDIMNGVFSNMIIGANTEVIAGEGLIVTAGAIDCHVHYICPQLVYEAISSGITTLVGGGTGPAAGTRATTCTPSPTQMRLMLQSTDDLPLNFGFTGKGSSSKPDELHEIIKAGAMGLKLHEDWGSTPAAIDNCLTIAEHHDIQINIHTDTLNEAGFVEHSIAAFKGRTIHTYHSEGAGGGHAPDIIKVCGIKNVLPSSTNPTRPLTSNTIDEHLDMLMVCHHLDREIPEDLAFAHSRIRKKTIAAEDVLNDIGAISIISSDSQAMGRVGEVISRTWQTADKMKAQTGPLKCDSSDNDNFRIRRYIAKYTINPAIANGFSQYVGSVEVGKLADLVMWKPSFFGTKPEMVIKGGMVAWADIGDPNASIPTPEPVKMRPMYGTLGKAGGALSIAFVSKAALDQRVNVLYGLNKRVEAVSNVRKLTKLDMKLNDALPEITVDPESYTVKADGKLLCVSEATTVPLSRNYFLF

Question: What does the source list for `CCCCNP(N)(N)=S` [n-BTPT, N-(n-butyl)thiophosphoric triamide]?
Answer: Ammonia release (48 h) (final concentration 350 g/MT n-BTPT in litter, bentonite absorptive substrate): 25 ppm; ammonia release reaches a maximum (FIG. 1) (n-BTPT concentration of 0.03%, grinded powder in litter, 48 h): 62%
